Results on one compound are retold here after ChEMBL document CHEMBL1133489, “Synthesis of FF-MAS from lithocholic acid” (Bioorg Med Chem Lett, 2000).

The species entered for the experiment is Mus musculus. As to the kind of experiment: Compound was evaluated for meiosis inducing effect on immature mouse oocytes; Positive. The experiment is classed as functional.

On to `CC(C)=CCC[C@@H](C)[C@H]1CC=C2C3=C(CC[C@@]21C)[C@@]1(C)CC[C@H](O)C(C)(C)[C@@H]1CC3`, for which the Activity entry was “Positive”.
